Measurements published in US12351574B2, “Selective ligands for modulation of GIRK channels” (Northeastern University, priority 2018, dated 2025).

Key:
[1] = system: BLA neurons (GIRK currents); experiment: whole-cell patch-clamp in acute brain slices, basolateral amygdala (BLA) neurons; assay type: cell-based, rat; conditions: for current response of BLA neurons (in words): −50 mV
Protocol: Electrophysiological recordings from brain slices containing basolateral amygdala (BLA) neurons: Electrophysiology was performed using 150-200 g male Sprague-Dawley rats (Harlan/Envigo, Indianapolis, IN). Rats were group housed in plastic cages in standard housing conditions with ad libitum access to food and water with 12:12 light/dark cycle (lights on at 07:00 h). All experiments were conducted in accordance with the Guide for the Care and Use of Laboratory Animals (Institute for Laboratory Animal Research, The National Academies Press) and the guidelines of the IUPUI Institutional Animal Care and Use Committee. Rats were anesthetized with isoflurane and immediately decapitated. Brains were then rapidly removed, placed in ice-cold oxygenated artificial cerebrospinal fluid solution (ACSF) and coronal slices ([…]) were prepared containing the amygdala. Slices were incubated at 31° C. for 30 min and then returned to room temperature until recording. [ACSF solution in mM: 130 NaCl; 3.5 KCl; 1.1 KH2PO4; 1.3 MgCl2; 2.5 CaCl2; 30 NaHCO3; 10 glucose, 315 mOsm, 7.4 pH]. Cells were identified for recording at 40× magnification using Scientifica Slicescope microscope under DIC illumination (Scientifica, Uckfield, UK). ACSF was warmed to 30° C. and perfused at a rate of 2-3 ml/min during recordings. Compounds were added to ACSF at desired concentrations. Whole-cell patch-clamp recordings were obtained using standard techniques. Borosilicate glass electrodes (WPI, Sarasota, FL) (resistance 3-6 MΩ) were prepared and used for both recording and baclofen application. [Recording internal solution in mM: 140 K-gluconate; 2 KCl; 3 MgCl2; 10 HEPES; 5 Phosphocreatinine; 2 K-ATP; 0.2 Na-GTP, 290 mOsm, 7.4 pH]. In voltage-clamp mode, the cell was adjusted to −50 mV at the beginning of all experiments and 5 min stable baseline was established before treatment. Picospritzer II (Parker Hannifin, Hollis, NH) was utilized for local application of 100 μM GABA-B agonist baclofen in ACSF to activate GIRKs. Baseline and baclofen-induced currents were averaged from three responses per cell and analyzed using ClampFit software (Molecular Devices, San Jose, CA). […] Several control cells were subjected to baclofen at 2 min intervals for 30 min and consistent responses were observed, thus ruling out time-dependent effects.
The inventors employed whole-cell patch-clamp recording in acute brain slices to examine the effect of GAT1508. The inventors utilized brain slices that included the basolateral amygdala (BLA), a limbic structure that has been extensively described to coordinate the acquisition and expression of fear memories. […] Next, the inventors examined the response of BLA neurons to baclofen, a GABAB-receptor agonist that induces GIRK-mediated potassium currents. […]

[2] = elevated plus maze (EPM); assay type: in vivo, rat; conditions: 30 mg/kg; vehicle group 30.6±4.4; trend
Protocol: Elevated plus maze (EPM): The EPM, as described previously was performed in a black Plexiglas apparatus (Hamilton Kinder, San Diego, CA) that consists of two open arms and two closed arms each 50.17 cm long and 10.8 cm wide. The closed arms have walls that are 40.01 cm high. The entire apparatus is elevated 100 cm above the ground on a square aluminum base. For a testing period of 5 min, anxiety is estimated by the amount of time rats spend in the closed versus open arms. Test sessions were video recorded by ceiling mounted cameras.

For `Cc1cc(NC(=O)Nc2ccc(Br)s2)n(-c2ccccc2)n1` [GAT1508, 1-(5-bromothiophen-2-yl)-3-(3-methyl-1-phenyl-1H-pyrazol-5-yl)urea], the “current response of BLA neurons (in words)” value ([1]; 10 μM perfusion) was “did not produce responses”, the “current response of BLA neurons (in words)” value ([1]; 30 μM perfusion) was “produced significant outward current” and the “effect on baclofen-induced current in BLA neurons (in words)” value ([1]; 10 min perfusion of 10 μM, 100 μM baclofen puff) was “significantly potentiated baclofen-induced current”. The “time spent on the open arm” value [2] was 48.7 ± 8.3 s.
